Laboratory results taken from article PMC8286840, “Identifying SARS-CoV-2 antiviral compounds by screening for small molecule inhibitors of Nsp3 papain-like protease” (Biochemical Journal, 2021).
Where a name gives a salt, the structure may show the parent alone. Read-outs that look alike come from different tables or passages of the source.

How the values were obtained:
[1] = target: T1, SARS-CoV-2 PLpro (nsp3 1564–1878) (Severe acute respiratory syndrome coronavirus 2, UniProt P0DTD1); assay: biochemical; design: FRET-quenched peptide (Pro3) cleavage by PLpro, 10 min pre-incubation, slope over 20 min, normalised to no-compound control; conditions: low concentration screen, read-out: % of control remaining
[2] = target: T1, SARS-CoV-2 PLpro (nsp3 1564–1878); assay: biochemical; design: FRET-quenched peptide (Pro3) cleavage by PLpro, 10 min pre-incubation, slope over 20 min, normalised to no-compound control; conditions: high concentration screen, read-out: % of control remaining

COc1ccc2c(c1)c(CC(=O)O)c(C)n2Cc1ccc(Cl)cc1 [1-(4-Chlorobenzyl)-5-methoxy-2-methylindole-3-acetic acid]
remaining activity at 1.25 µM ([1]; Well no.=379): 99.8%
remaining activity at 3.75 µM ([2]; Well no.=379): 99.4%

COc1ccc2c(c1)c(CC(=O)O)c(C)n2Cc1ccc(F)cc1 [1-(4-Fluorobenzyl)-5-methoxy-2-methylindole-3-acetic acid]
remaining activity at 1.25 µM ([1]; Well no.=515): 99.4%
remaining activity at 3.75 µM ([2]; Well no.=515): 99.5%

Oc1ccc(Cn2cc[nH]c2=S)cc1 [1-(4-Hydroxybenzyl)imidazole-2-thiol]
remaining activity at 1.25 µM ([1]; Well no.=516): 104%
remaining activity at 3.75 µM ([2]; Well no.=516): 105%

COc1ccc2cc(OCC3(C(=O)O)CN(C(=O)c4ccc(F)cc4)C3)ccc2c1 [1-(4-fluorobenzoyl)-3-(((6-methoxynaphthalen-2-yl)oxy)methyl)azetidine-3-carboxylic acid]
remaining activity at 1.25 µM ([1]; Well no.=5909): 103%
remaining activity at 3.75 µM ([2]; Well no.=5909): 102%

CC1CNCCN1S(=O)(=O)c1cccc2cnccc12 (stereo not shown) [1-(5-Isoquinolinylsulfonyl)-2-methylpiperazine dihydrochloride]
remaining activity at 1.25 µM ([1]; Well no.=965): 104%
remaining activity at 3.75 µM ([2]; Well no.=965): 103%

CC1CN(S(=O)(=O)c2cccc3cnccc23)CCN1 (stereo not shown) [1-(5-Isoquinolinylsulfonyl)-3-methylpiperazine dihydrochloride]
remaining activity at 1.25 µM ([1]; Well no.=869): 106%
remaining activity at 3.75 µM ([2]; Well no.=869): 104%

NC(N)=NC(N)=Nc1cccc(Cl)c1 [1-(m-Chlorophenyl)-biguanide hydrochloride]
remaining activity at 1.25 µM ([1]; Well no.=487): 106%
remaining activity at 3.75 µM ([2]; Well no.=487): 103%

CN1CCN(CCCCN2C(=O)CN(/N=C/c3ccc(-c4ccc(Cl)cc4)o3)C2=O)CC1 [1-({(E)-[5-(4-chlorophenyl)-2-furyl]methylidene}amino)-3-[4-(4-methyl-1-piperazinyl)butyl]-2,4-imidazolidinedione dihydrochloride]
remaining activity at 1.25 µM ([1]; Well no.=5603): 97.6%
remaining activity at 3.75 µM ([2]; Well no.=5603): 101%

C=CCn1c(=O)c2c(nc(-c3ccc(S(=O)(=O)O)cc3)n2C)n(C)c1=O [1-Allyl-3,7-dimethyl-8-p-sulfophenylxanthine]
remaining activity at 1.25 µM ([1]; Well no.=16): 98.3%
remaining activity at 3.75 µM ([2]; Well no.=16): 89.6%

NC1(C(=O)O)CCCCC1 [1-Amino-1-cyclohexanecarboxylic acid hydrochloride]
remaining activity at 1.25 µM ([1]; Well no.=160): 100%
remaining activity at 3.75 µM ([2]; Well no.=160): 102%

Nn1nnc2ccccc21 [1-Aminobenzotriazole]
remaining activity at 1.25 µM ([1]; Well no.=253): 98.6%
remaining activity at 3.75 µM ([2]; Well no.=253): 99%

NC1(C(=O)O)CC1 [1-Aminocyclopropanecarboxylic acid hydrochloride]
remaining activity at 1.25 µM ([1]; Well no.=341): 100%
remaining activity at 3.75 µM ([2]; Well no.=341): 102%

O=C1Cc2c([nH]c3ccc(Br)cc23)-c2ncccc2N1 [1-Azakenpaullone]
remaining activity at 1.25 µM ([1]; Well no.=2335): 96.4%
remaining activity at 3.75 µM ([2]; Well no.=2335): 97.1%

OC[C@H]1NC[C@H](O)[C@@H](O)[C@@H]1O [1-Deoxynojirimycin hydrochloride]
remaining activity at 1.25 µM ([1]; Well no.=586): 102%
remaining activity at 3.75 µM ([2]; Well no.=586): 102%

CCCCCCCCCCCCCCCCOCC(CO)OC(C)=O (stereo not shown) [1-Hexadecyl-2-O-acetyl-glycerol]
remaining activity at 1.25 µM ([1]; Well no.=4238): 95.2%
remaining activity at 3.75 µM ([2]; Well no.=4238): 98.7%

CCCCCCCCCCCCCCCCOC[C@H](CO)OC [1-Hexadecyl-2-O-methyl-glycerol]
remaining activity at 1.25 µM ([1]; Well no.=4572): 97.5%
remaining activity at 3.75 µM ([2]; Well no.=4572): 99.2%

CCCCCCCCCCCCCCCCOCC(COP(=O)([O-])OCC[N+](C)(C)C)OC (stereo not shown) [1-Hexadecyl-2-methylglycero-3 PC]
remaining activity at 1.25 µM ([1]; Well no.=4259): 95.4%
remaining activity at 3.75 µM ([2]; Well no.=4259): 92%

Cn1cnc2c(ncn2[C@@H]2O[C@H](CO)[C@@H](O)[C@H]2O)c1=N [1-Methyladenosine]
remaining activity at 1.25 µM ([1]; Well no.=7121): 102%
remaining activity at 3.75 µM ([2]; Well no.=7121): 98.5%

Cn1cnc(CCN)c1 [1-Methylhistamine dihydrochloride]
remaining activity at 1.25 µM ([1]; Well no.=928): 101%
remaining activity at 3.75 µM ([2]; Well no.=928): 103%

Cn1ccnc1 [1-Methylimidazole]
remaining activity at 1.25 µM ([1]; Well no.=939): 101%
remaining activity at 3.75 µM ([2]; Well no.=939): 102%

Cn1cnc2c(ncn2[C@@H]2O[C@H](CO)[C@@H](O)[C@H]2O)c1=O [1-Methylinosine]
remaining activity at 1.25 µM ([1]; Well no.=7167): 103%
remaining activity at 1.25 µM ([1]; Well no.=7858): 102%
remaining activity at 3.75 µM ([2]; Well no.=7167): 101%

CC(C)(C)n1nc(-c2cccc3ccccc23)c2c(N)ncnc21 [1-Naphthyl PP1 - 1-(1,1-Dimethylethyl)-3-(1-naphthalenyl)-1H-pyrazolo[3,4-d]pyrimidin-4-amine]
remaining activity at 1.25 µM ([1]; Well no.=2674): 98%
remaining activity at 3.75 µM ([2]; Well no.=2674): 98.4%

CCCCCCCC/C=C\CCCCCCCC(=O)OC[C@H](CO)OC(C)=O [1-Oleoyl-2-acetyl-glycerol]
remaining activity at 1.25 µM ([1]; Well no.=4480): 97.7%
remaining activity at 3.75 µM ([2]; Well no.=4480): 99.2%

S=C(Nc1ccccc1)Nc1nccs1 [1-Phenyl-3-(2-thiazolyl)-2-thiourea]
remaining activity at 1.25 µM ([1]; Well no.=858): 99.5%
remaining activity at 3.75 µM ([2]; Well no.=858): 96.6%

NC(N)=NC(N)=Nc1ccccc1 [1-Phenylbiguanide]
remaining activity at 1.25 µM ([1]; Well no.=1263): 102%
remaining activity at 3.75 µM ([2]; Well no.=1263): 102%

CCCCC/C=C\C/C=C\C/C=C\C/C=C\CCCC(=O)O[C@@H](CO)COC(=O)CCCCCCCCCCCCCCCCC [1-Stearoyl-2-arachidonoyl-glycerol]
remaining activity at 1.25 µM ([1]; Well no.=4482): 95.9%
remaining activity at 3.75 µM ([2]; Well no.=4482): 96.2%

FC(F)(F)c1ccccc1-n1ccnc1 [1-[2-(Trifluoromethyl)phenyl]imidazole]
remaining activity at 1.25 µM ([1]; Well no.=1533): 89.9%
remaining activity at 3.75 µM ([2]; Well no.=1533): 90.7%

O=c1ccn([C@@H]2O[C@H](CO)[C@@H](O)[C@@H]2O)c(=O)[nH]1 [1-_beta-_D-_Arabinofuranosylurac_il]
remaining activity at 1.25 µM ([1]; Well no.=8887): 95.2%
remaining activity at 3.75 µM ([2]; Well no.=8887): 94.3%

C=CC(=O)N1C/C(=C\c2ccc([N+](=O)[O-])cc2)C(=O)/C(=C/c2ccc([N+](=O)[O-])cc2)C1 [1-acryloyl-3,5-bis((E)-4-nitrobenzylidene)piperidin-4-one]
remaining activity at 1.25 µM ([1]; Well no.=6015): 103%
remaining activity at 3.75 µM ([2]; Well no.=6015): 99.9%

COc1ccc2c(c1)c(CC(=O)O)c(C)n2C(=O)c1ccccc1 [1-benzoyl-5-methoxy-2-methylindole-3-acetic acid]
remaining activity at 1.25 µM ([1]; Well no.=118): 102%
remaining activity at 3.75 µM ([2]; Well no.=118): 104%

O=C(O)c1cn(C2CC2)c2cc(N3C[C@@H]4C[C@H]3CN4)c(F)cc2c1=O [1-cyclopropyl-7-[(1S,4S)-2,5-diazabicyclo[2.2.1]hept-2-yl]-6-fluoro-4-oxo-1,4-dihydro-3-quinolinecarboxylic acid methanesulfonate hydrate]
remaining activity at 1.25 µM ([1]; Well no.=5598): 91.4%
remaining activity at 3.75 µM ([2]; Well no.=5598): 86.5%

Nc1ncnc2c1ncn2[C@H]1CC[C@@H](CO)O1 [2',3'-Dideoxyadenosine]
remaining activity at 1.25 µM ([1]; Well no.=7998): 97.5%
remaining activity at 3.75 µM ([2]; Well no.=7998): 94.3%

Cc1cn([C@H]2C=C[C@@H](CO)O2)c(=O)[nH]c1=O [2',3'-didehydro-3'-deoxythymidine]
remaining activity at 1.25 µM ([1]; Well no.=445): 104%
remaining activity at 3.75 µM ([2]; Well no.=445): 105%
